Laboratory results from US20250197359A1, “CANNABINOID RECEPTOR MODULATING COMPOUNDS” (The U.S.A., as Represented by the Secretary, Department of …, priority 2022, published 2025).
Several values for one entry are separate records, joined by “and”; a condition that tells them apart may be missing. Equal values may be shown once.

Legend:
CB1 = CB1 (UniProt P21554); assay: CB1 radioligand binding assay; parameters: species or system human; settings: read-out: Ki (CB1)
Protocol: The target compounds were evaluated in vitro at the human CB1 receptor, stably expressed into Chinese hamster ovary (CHO) cells by utilizing radioligand binding studies.
The binding constant for the synthesized compounds were determined by using radioligand binding assay in mouse brain membranes as well as the target compounds were evaluated in vitro at the human CB1 receptor, stably expressed into Chinese hamster ovary (CHO) cells as well as mouse brain membrane CB1. […]

Brain/CB1 = molecular target: T1, Brain/CB1 (Mus musculus, UniProt P47746); assay: Functional GTPγS binding, Brain/CB1; assay type: biochemical
T1 construct: from tissue; host or cells: mouse brain membranes
T1 sequence (P47746 whole entry): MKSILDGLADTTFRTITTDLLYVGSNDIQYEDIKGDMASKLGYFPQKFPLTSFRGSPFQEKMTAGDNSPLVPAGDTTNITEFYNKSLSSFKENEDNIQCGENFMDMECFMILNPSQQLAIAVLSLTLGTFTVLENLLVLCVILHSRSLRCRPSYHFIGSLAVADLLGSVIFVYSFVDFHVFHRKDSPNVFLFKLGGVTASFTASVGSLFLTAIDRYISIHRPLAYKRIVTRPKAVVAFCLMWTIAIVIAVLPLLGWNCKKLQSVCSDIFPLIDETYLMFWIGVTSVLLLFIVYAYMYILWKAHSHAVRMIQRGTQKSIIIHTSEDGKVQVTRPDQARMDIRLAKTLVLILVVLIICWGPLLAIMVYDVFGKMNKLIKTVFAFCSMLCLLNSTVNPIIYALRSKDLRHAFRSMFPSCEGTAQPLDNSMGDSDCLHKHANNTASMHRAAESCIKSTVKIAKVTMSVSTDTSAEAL
From the text: Furthermore, the intermediates urea compounds 8a-m were chlorinated with phosphorus oxychloride in the presence of DIPEA base to form imidoyl chloride intermediate and reacted with acetamidine hydrochloride/methyl carbamimidothioate iodide/methyl carbamimidoselenoate iodide and other amines to furnish the target compounds (10a-34b) (Scheme 2, FIG. 2, Scheme 5, FIG. 5). The urea derivatives were converted to the thiourea derivatives 9a-9d by employing sodium thiosulfate. Compound 8a-b, 8e-f were converted to corresponding thiourea by employing sodium thiosulfate dissolved in water dioxane mixture and the reaction was heated to 85° C. for 2 h. […] The binding constant for the synthesized compounds were determined by using radioligand binding assay in mouse brain membranes as well as the target compounds were evaluated in vitro at the human CB1 receptor, stably expressed into Chinese hamster ovary (CHO) cells as well as mouse brain membrane CB1.

Row | Ki (CB1) | IC50 (Brain/CB1) | Structure (SMILES)
1 | 8.05 nM | 33 nM | CC(N/C(=N/S(=O)(=O)c1ccc(C(F)(F)F)cc1)N1CCC(c2ccccc2)C(c2ccc(Cl)cc2)=N1)C(N)=O (single isomer, unassigned) [Compound 31b, (Z)-2-(3-(4-chlorophenyl)-4-phenyl-N′-((4-(trifluoromethyl)phenyl)sulfonyl)-1,4,5,6-tetrahydropyridazine-1-carboximidamido) propenamide]
2 | 77.4 nM | 174 nM | CCC(N/C(=N/S(=O)(=O)c1ccc(C(F)(F)F)cc1)N1CCC(c2ccccc2)C(c2ccc(Cl)cc2)=N1)C(N)=O (single isomer, unassigned) [Compound 32b, (Z)-2-(3-(4-chlorophenyl)-4-phenyl-N′-((4-(trifluoromethyl)phenyl)sulfonyl)-1,4,5,6-tetrahydropyridazine-1-carboximidamido) butanamide]
3 | 66.8 nM | 423 nM | NC(=O)C(Cc1ccccc1)N/C(=N/S(=O)(=O)c1ccc(C(F)(F)F)cc1)N1CCC(c2ccccc2)C(c2ccc(Cl)cc2)=N1 (single isomer, unassigned) [Compound 33a, (Z)-2-(3-(4-chlorophenyl)-4-phenyl-N′-((4-(trifluoromethyl)phenyl)sulfonyl)-1,4,5,6-tetrahydropyridazine-1-carboximidamido)-3-phenylpropanamide]
4 | 6.13 nM | 12 nM | NC(=O)C(Cc1ccccc1)N/C(=N/S(=O)(=O)c1ccc(C(F)(F)F)cc1)N1CCC(c2ccccc2)C(c2ccc(Cl)cc2)=N1 (single isomer, unassigned) [Compound 33b, (Z)-2-(3-(4-chlorophenyl)-4-phenyl-N′-((4-(trifluoromethyl)phenyl)sulfonyl)-1,4,5,6-tetrahydropyridazine-1-carboximidamido)-3-phenylpropanamide]
5 | 46.4 nM | 41 nM | COC(=O)C(N/C(=N/S(=O)(=O)c1ccc(C(F)(F)F)cc1)N1CCC(c2ccccc2)C(c2ccc(Cl)cc2)=N1)C(C)C (single isomer, unassigned) [Compound 34a]
6 | 2.71 nM | 17 nM | COC(=O)C(N/C(=N/S(=O)(=O)c1ccc(C(F)(F)F)cc1)N1CCC(c2ccccc2)C(c2ccc(Cl)cc2)=N1)C(C)C (single isomer, unassigned) [Compound 34b]

The next lines start with the compound.

Row | Structure (SMILES) | Ki (CB1) | IC50 (Brain/CB1)
7 | C/C(N)=N\C(=N\S(=O)(=O)c1cccc(C(F)(F)F)c1)N1CCC(c2ccccc2)C(c2ccc(Cl)cc2)=N1 (stereo not shown) [Compound 10c, (Z)—N—((E)-1-aminoethylidene)-3-(4-chlorophenyl)-4-phenyl-N′-((3-(trifluoromethyl)phenyl)sulfonyl)-5,6-dihydropyridazine-1 (4H)-carboximidamide] | 28.3 nM | 105 nM
8 | C/C(N)=N\C(=N\S(=O)(=O)c1ccc2ccccc2c1)N1CCC(c2ccccc2)C(c2ccc(Cl)cc2)=N1 (stereo not shown) [Compound 10f, (Z)—N—((E)-1-aminoethylidene)-3-(4-chlorophenyl)-N′-(naphthalen-2-ylsulfonyl)-4-phenyl-5,6-dihydropyridazine-1 (4H)-carboximidamide] | 31.4 nM | 132 nM
9 | C/C(N)=N\C(=N\S(=O)(=O)c1ccccc1)N1CCC(c2ccccc2)C(c2ccc(Cl)cc2)=N1 (stereo not shown) [Compound 10g, (Z)—N—((E)-1-aminoethylidene)-3-(4-chlorophenyl)-4-phenyl-N′-(phenylsulfonyl)-5,6-dihydropyridazine-1 (4H)-carboximidamide] | 128 nM and 212 nM | 357 nM
10 | COc1ccc(S(=O)(=O)/N=C(/N=C(\C)N)N2CCC(c3ccccc3)C(c3ccc(Cl)cc3)=N2)cc1 (stereo not shown) [Compound 10h, (Z)—N—((E)-1-aminoethylidene)-3-(4-chlorophenyl)-N′-((4-methoxyphenyl)sulfonyl)-4-phenyl-5,6-dihydropyridazine-1 (4H)-carboximidamide] | 105 nM | 357 nM
11 | C/C(N)=N\C(=N\S(=O)(=O)c1ccc(I)cc1)N1CCC(c2ccccc2)C(c2ccc(Cl)cc2)=N1 (stereo not shown) [Compound 10i, (Z)—N—((E)-1-aminoethylidene)-3-(4-chlorophenyl)-N′-((4-iodophenyl)sulfonyl)-4-phenyl-5,6-dihydropyridazine-1 (4H)-carboximidamide] | 43 nM | 118 nM
12 | C/C(N)=N\C(=N\S(=O)(=O)c1ccc(F)cc1)N1CCC(c2ccccc2)C(c2ccc(Cl)cc2)=N1 (stereo not shown) [Compound 10j, (Z)—N—((E)-1-aminoethylidene)-3-(4-chlorophenyl)-N′-((4-fluorophenyl)sulfonyl)-4-phenyl-5,6-dihydropyridazine-1 (4H)-carboximidamide] | 59.3 nM | 182 nM
13 | C/C(N)=N\C(=N\S(=O)(=O)c1ccccc1C(F)(F)F)N1CCC(c2ccccc2)C(c2ccc(Cl)cc2)=N1 (stereo not shown) [Compound 10k, (Z)—N—((E)-1-aminoethylidene)-3-(4-chlorophenyl)-4-phenyl-N′-((2-(trifluoromethyl)phenyl)sulfonyl)-5,6-dihydropyridazine-1 (4H)-carboximidamide] | 50.6 nM | 125 nM
14 | N/C(=N\C(=N\S(=O)(=O)c1ccc(C(F)(F)F)cc1)N1CCC(c2ccccc2)C(c2ccc(Cl)cc2)=N1)c1ccccc1 (stereo not shown) [Compound 10r, (Z)—N—((Z)-amino (phenyl)methylene)-3-(4-chlorophenyl)-4-phenyl-N′-((4-(trifluoromethyl)phenyl)sulfonyl)-5,6-dihydropyridazine-1 (4H)-carboximidamide] | 33 nM | 197 nM
15 | N/C(=N\C(=N\S(=O)(=O)c1ccc(C(F)(F)F)cc1)N1CCC(c2ccccc2)C(c2ccc(Cl)cc2)=N1)c1ccccc1F (stereo not shown) [Compound 10t, (Z)—N—((Z)-amino (2-fluorophenyl)methylene)-3-(4-chlorophenyl)-4-phenyl-N′-((4-(trifluoromethyl)phenyl)sulfonyl)-5,6-dihydropyridazine-1 (4H)-carboximidamide] | 7.4 nM | 25 nM
16 | N/C(=N\C(=N\S(=O)(=O)c1ccc(C(F)(F)F)cc1)N1CCC(c2ccccc2)C(c2ccc(Cl)cc2)=N1)c1ccc(F)cc1 (stereo not shown) [Compound 10u, (Z)—N—((Z)-amino (4-fluorophenyl)methylene)-3-(4-chlorophenyl)-4-phenyl-N′-((4-(trifluoromethyl)phenyl)sulfonyl)-5,6-dihydropyridazine-1 (4H)-carboximidamide] | 27.3 nM | 107 nM
17 | N/C(=N\C(=N\S(=O)(=O)c1ccc(C(F)(F)F)cc1)N1CCC(c2ccccc2)C(c2ccc(Cl)cc2)=N1)c1ccccn1 (stereo not shown) [Compound 10v, (Z)—N—((Z)-amino (pyridin-2-yl)methylene)-3-(4-chlorophenyl)-4-phenyl-N′-((4-(trifluoromethyl)phenyl)sulfonyl)-5,6-dihydropyridazine-1 (4H)-carboximidamide] | 7 nM | 26 nM
18 | N/C(=N\C(=N\S(=O)(=O)c1ccc(C(F)(F)F)cc1)N1CCC(c2ccccc2)C(c2ccc(Cl)cc2)=N1)c1cccs1 (stereo not shown) [Compound 10w, (Z)—N—((Z)-amino (thiophen-2-yl)methylene)-3-(4-chlorophenyl)-4-phenyl-N′-((4-(trifluoromethyl)phenyl)sulfonyl)-5,6-dihydropyridazine-1 (4H)-carboximidamide] | 140 nM | 234 nM
19 | CC(C)(C)/C(N)=N/C(=N/S(=O)(=O)c1ccc(C(F)(F)F)cc1)N1CCC(c2ccccc2)C(c2ccc(Br)cc2)=N1 (stereo not shown) [Compound 10x, (Z)—N—((Z)-1-amino-2,2-dimethylpropylidene)-3-(4-bromophenyl)-4-phenyl-N′-((4-(trifluoromethyl)phenyl)sulfonyl)-5,6-dihydropyridazine-1 (4H)-carboximidamide] | 20.3 nM | 35 nM
20 | C/C(N)=N/C(=N/S(=O)(=O)c1ccc(C(F)(F)F)cc1)N1CCC(c2ccccc2)C(c2ccc(Br)cc2)=N1 (stereo not shown) [Compound 10y, (Z)—N—((Z)-1-aminoethylidene)-3-(4-bromophenyl)-4-phenyl-N′-((4-(trifluoromethyl)phenyl)sulfonyl)-5,6-dihydropyridazine-1 (4H)-carboximidamide] | 57.2 nM | 92 nM
21 | N/C(=N\C(=N\S(=O)(=O)c1ccc(C(F)(F)F)cc1)N1CCC(c2ccccc2)C(c2ccc(Br)cc2)=N1)c1ccccc1F (stereo not shown) [Compound 10z, (Z)—N—((Z)-amino (2-fluorophenyl)methylene)-3-(4-bromophenyl)-4-phenyl-N′-((4-(trifluoromethyl)phenyl)sulfonyl)-5,6-dihydropyridazine-1 (4H)-carboximidamide] | 8.25 nM | 49 nM
22 | N/C(=N\C(=N\S(=O)(=O)c1ccc(C(F)(F)F)cc1)N1CCC(c2ccccc2)C(c2ccc(Br)cc2)=N1)c1ccc(F)cc1F (stereo not shown) [Compound 10za, (Z)—N—((Z)-amino (2,4-difluorophenyl)methylene)-3-(4-bromophenyl)-4-phenyl-N′-((4-(trifluoromethyl)phenyl)sulfonyl)-5,6-dihydropyridazine-1 (4H)-carboximidamide] | 9.18 nM | 26 nM
23 | CC(C)(C)/C(N)=N/C(=N/S(=O)(=O)c1ccc(C(F)(F)F)cc1)N1CCC(c2ccccc2)C(c2ccc(F)cc2)=N1 (stereo not shown) [Compound 10zb, (Z)—N—((Z)-1-amino-2,2-dimethylpropylidene)-3-(4-fluorophenyl)-4-phenyl-N′-((4-(trifluoromethyl)phenyl)sulfonyl)-5,6-dihydropyridazine-1 (4H)-carboximidamide] | 75.6 nM | 478 nM
